Experimental data reported in patent US20260337240A1, “CC16-DERIVED ANALOGS FOR THE TREATMENT OF INFLAMMATORY AND OBSTRUCTIVE LUNG DISEASES” (priority 2023, published 2026).
Non-standard residues stand in square brackets, D forms with d. Residues, ends and D or L forms follow the SMILES beside them. Nle = CCCC[C@H](N)C(=O)O

Experiments:
INF-lambda = assay: Peptidomimetic screen in human nasal cells: INF-lambda induction (RT-PCR); type: cell-based; settings: 2.5 μM; RV MOI 0.1 for 4 hrs, then compound for 48 hrs; RT-PCR (FIG. 10 middle panel)
Excerpt: (§1) Top panel, RV infectivity; middle panel, IFN-lamda; bottom panel, TNF-alpha levels. All determined by RT-PCR.
(§2) CC16-derived peptidomimetics provide protection against human Rhinovirus infection in airway epithelial cells. Preliminary studies were done in primary nasal cells grown at an ALI. Transwell cells were challenged with RV ([…] (MOI) 0.1) for 4 hrs, after which external RV was washed from the cell surface and test compounds added; uninfected baseline controls will be treated the same by pipetting media. Cells are allowed to incubate for an additional 48 hrs. Three readouts were used for analysis in this screen: RV infectivity, INF-lambda induction, and TNF-alpha induction. An optimal compound for this screening will have a reduction in RV infection, maintain high levels of INF-lambda, and have low levels of TNF-alpha.
(§3) RV burden, INF-lambda, and TNF-alpha are assessed by RT-PCR. Those compounds moving forward will be tested in a dose-response to determine optimal concentrations needed for IC50.

[1] = tested on: human Rhinovirus in primary nasal cells; assay: Peptidomimetic screen in human nasal cells: RV infectivity (RT-PCR); type: cell-based; settings: for RV infectivity / RV inhibition activity: RV MOI 0.1 for 4 hrs, then compound for 48 hrs, triplicate, RT-PCR (FIG. 10 top panel)
Excerpt: as §1, §2, §3

[2] = tested on: lung function in HDM-treated mice; assay: Baseline lung function (FEV0.2, invasive PFT) without methacholine provocation in HDM-treated mice; type: in vivo; settings: IV, 24 hrs after last HDM challenge (FIG. 8 right)
Procedure: (§4) Left panel, C836, was delivered via IV 2 hrs after each HDM challenge. Cells in the lavage fluid were measured 24 hrs after the last HDM challenge. Right panel, baseline lung function, without methacholine provocation, as assessed in the mice receiving C836 IV, 24 hrs after the last HDM challenge. ** p<0.01, **** p<0.0001 by ANOVA.
Lung function tests are typically performed using methacholine provocation, which induces bronchoconstriction. However, the tests referenced here were conducted without provocation, meaning that when C836 was administered alongside an HDM challenge, it prevented the loss of lung function typically associated with HDM exposure. These tests were conducted at baseline, without the use of a bronchoconstrictor, similar to an asthma patient living a normal day without an attack.

[3] = tested on: airway hyperresponsiveness (AHR); assay: Airway hyperresponsiveness (AHR) to methacholine in HDM-exposed Cc16^−/− mice (flexiVent); type: in vivo; settings: oropharyngeal, approximately 1 hr after each HDM dose on days 0, 7, 14; methacholine 24 hrs after last HDM; p<0.05 at the highest dose (FIG. 9)
Procedure: C836 was delivered to the airways 2 hrs after each HDM challenge. AHR to methacholine was assessed 24 hrs after the last HDM challenge. * p<0.05 at the highest dose.
C836 reduces AHR in Cc16^−/− mice exposed to HDM. The activity of C836 was tested for its ability to provide protection in the allergic airway model induced by exposure to HDM. For this, CC16^−/− mice were used, and the C836 (or vehicle control) was delivered to the airway via the oropharyngeal method approximately 1 hr after each HDM dose on days 0, 7, and 14. Mice were assessed 24 hrs after the last HDM challenge by flexi Vent® and methacholine challenge.

[4] = tested on: RV in primary human nasal epithelial cells (HNECs); assay: RV infection in primary human nasal epithelial cells (HNECs) at ALI, post-infection treatment (qPCR); type: cell-based; settings: 25 g/ml (so in the source); added after 4 hrs RV infection, 48 hrs incubation; non-asthma participants; p<0.01 by ANOVA (FIG. 6)
Procedure: Cells were grown at ALI for 3 weeks and infected with RV for 4 hours, after which they were washed and allowed to incubate for 48 hours with or without rCC16 or C836. RV was determined by qPCR. Each dot is a technical replicate, ** p<0.01 by ANOVA.
rCC16 and CC16-derived peptidomimetics reduce RV infection in human nasal cells. In order to test if rCC16 added exogenously could protect against RV viral infection, primary human nasal epithelial cells (HNECs) were grown from non-asthma participants at an air-liquid interface (ALI) for 21 days. On the day of infection, RV was added to the apical surface and allowed to incubate for 4 hrs, after which cells were gently washed with media, and either media alone, rCC16 (25 g/ml), or CC16-derived peptidomimetic, C836 (25 g/ml), were added and cells allowed to incubate for an additional 48 hrs. After harvest, RV infectivity was determined by PCR for RV.

[5] = tested on: house dust mite (HDM) allergic airway disease; neutrophils in lavage fluid; assay: Neutrophil recruitment into the lung in HDM model, IV treatment; type: in vivo, mice; settings: IV 2 hrs after each HDM challenge; lavage fluid 24 hrs after last HDM challenge; preliminary (FIG. 8 left)
Procedure: as §4
Thus, a small peptidomimetic was designed based on the newly discovered LVD (leucine-valine-aspartic acid) integrin binding domain contained within the CC16 protein. The lead compound, C836, is a 17-mer containing the LVD integrin binding domain. […] Neutrophils, when present in the lungs of individuals with asthma, are typically associated with more severe and difficult to treat forms of the condition. In COPD, neutrophils are often highly destructive, releasing factors and enzymes that degrade the basement membrane and damage the delicate airway epithelium. Therefore, strategies to reduce neutrophil accumulation or activity in both asthma and COPD would provide significant benefits for overall lung health, potentially improving disease outcomes and reducing airway damage.

TNF-alpha = assay: Peptidomimetic screen in human nasal cells: TNF-alpha induction (RT-PCR); type: cell-based; settings: 2.5 μM; RV MOI 0.1 for 4 hrs, then compound for 48 hrs; RT-PCR (FIG. 10 bottom panel)
Excerpt: as §1, §2, §3

[6] = tested on: airway hyperresponsiveness and respiratory infections; assay: rCC16 delivered intravenously (retro-orbital) or oropharyngeally: airway hyperresponsiveness and respiratory infections; type: in vivo; settings: IV via retro-orbital injection or oropharyngeal delivery (both)
Excerpt: (§5) In the examples provided below, human recombinant CC16 (rCC16) was delivered either intravenously (IV) via retro-orbital injection or directly to the lungs through oropharyngeal delivery.

[7] = tested on: leukocyte recruitment into the lungs; assay: rCC16 delivered intravenously or oropharyngeally: leukocyte recruitment into the lungs; type: in vivo; settings: only intravenous delivery
Excerpt: as §5

respiratory challenges = settings: direct delivery; cited from earlier work
[8] = tested on: human Rhinovirus (RV; RVIB); assay: RV burden in CC16^−/− mice given rCC16 (RT-PCR); type: in vivo; settings: female CC16^−/− mice; RV 4×10^7 PFU/50 μl intranasal; rCC16 given at time of infection; RT-PCR at 48 hrs; p<0.05 by t-test (FIG. 4)
Procedure: RT-PCR at 48 hrs. * p<0.05 by t-test.
rCC16 treatment decreases human Rhinovirus (RV; RVIB) burden in CC16^−/− mice: For these studies, female mice were infected with RV (4×10^7 plaque-forming unit (PFU)/50 μl) via intranasal instillation for 48 hrs, and mice were either given vehicle (saline) or rCC16 (human recombinant CC16) at the time of infection.

## CCCC[C@H](NC(=O)[C@H](CC(=O)O)NC(=O)[C@H](CCC(N)=O)NC(C)=O)C(=O)N[C@@H](CCCNC(=N)N)C(=O)N[C@@H](CCC(=O)O)C(=O)N[C@@H](C)C(=O)NCC(=O)N[C@@H](C)C(=O)N[C@@H](CCC(N)=O)C(=O)N[C@@H](CC(C)C)C(=O)N[C@@H](CCCCN)C(=O)N[C@@H](CCCCN)C(=O)N[C@@H](CC(C)C)C(=O)N[C@H](C(=O)N[C@@H](CC(=O)O)C(=O)N[C@H](C(N)=O)[C@@H](C)O)C(C)C [Compound 972, Ac-Gln-Asp-Nle-Arg-Glu-Ala-Gly-Ala-Gln-Leu-Lys-Lys-Leu-Val-Asp-Thr-NH2] (Ac-QD[Nle]REAGAQLKKLVDT-NH2)
INF-lambda
  INF-lambda levels: maintain INF-lambda levels
[1]; 2.5 μM
  RV infectivity / RV inhibition activity: had RV inhibition activity
[1]; 2.5 μM, RV-infected nasal cells
  overall outcome of the screen for the 3 factors (RV infectivity, INF-lambda, TNF-alpha): best candidate to move forward

## CCCC[C@H](NC(=O)[C@H](CC(=O)O)NC(=O)[C@H](CCC(N)=O)NC(=O)[C@H](CC(=O)O)NC(C)=O)C(=O)N[C@@H](CCCNC(=N)N)C(=O)N[C@@H](CCC(=O)O)C(=O)N[C@@H](C)C(=O)NCC(=O)N[C@@H](C)C(=O)N[C@@H](CCC(N)=O)C(=O)N[C@@H](CC(C)C)C(=O)N[C@@H](CCCCN)C(=O)N[C@@H](CCCCN)C(=O)N[C@@H](CC(C)C)C(=O)N[C@H](C(=O)N[C@@H](CC(=O)O)C(=O)N[C@H](C(N)=O)[C@@H](C)O)C(C)C [Compound C836, DQD-Nle-REAGAQLKKLVDT] (Ac-DQD[Nle]REAGAQLKKLVDT-NH2)
[2]
  loss of lung function as measured by FEV0.2: protective from loss of lung function
[3]
  airway hyperresponsiveness (AHR) compared to HDM-treated given vehicle: significantly lower airway hyperresponsiveness (AHR)
[1]; 2.5 μM
  RV infectivity / RV inhibition activity: have activity in reducing RV infectivity
[4]
  reduction of RV infection in human nasal cells: approximately 80%
[5]
  neutrophils recruited into the lung during HDM challenge: fewer neutrophils are recruited into the lung

## CCCC[C@H](NC(=O)[C@H](CC(=O)O)NC(=O)[C@H](CCC(N)=O)NC(=O)[C@H](CC(=O)O)NC(C)=O)C(=O)N[C@@H](CCCNC(=N)N)C(=O)N[C@@H](CCC(=O)O)C(=O)N[C@@H](C)C(=O)NCC(=O)N[C@@H](C)C(=O)N[C@@H](CCC(N)=O)C(=O)N[C@@H](CC(C)C)C(=O)N[C@@H](CCCCN)C(=O)N[C@@H](CCCCN)C(=O)N[C@@H](CC(C)C)C(=O)N[C@H](C(=O)N[C@@H](CC(=O)O)C(=O)O)C(C)C [Compound 970, Ac-Asp-Gln-Asp-Nle-Arg-Glu-Ala-Gly-Ala-Gln-Leu-Lys-Lys-Leu-Val-Asp-OH] (Ac-DQD[Nle]REAGAQLKKLVD-OH)
[1]; 2.5 μM
  RV infectivity / RV inhibition activity: had RV inhibition activity

## Ac-Nle-Arg-Glu-Ala-Gly-Ala-Gln-Leu-Lys-Lys-Leu-Val-Asp-Thr-NH2 (Ac-[Nle]REAGAQLKKLVDT-NH2; SMILES CCCC[C@H](NC(C)=O)C(=O)N[C@@H](CCCNC(=N)N)C(=O)N[C@@H](CCC(=O)O)C(=O)N[C@@H](C)C(=O)NCC(=O)N[C@@H](C)C(=O)N[C@@H](CCC(N)=O)C(=O)N[C@@H](CC(C)C)C(=O)N[C@@H](CCCCN)C(=O)N[C@@H](CCCCN)C(=O)N[C@@H](CC(C)C)C(=O)N[C@H](C(=O)N[C@@H](CC(=O)O)C(=O)N[C@H](C(N)=O)[C@@H](C)O)C(C)C) [Compound 974]
INF-lambda
  INF-lambda levels: maintain INF-lambda levels
TNF-alpha
  TNF-alpha levels: has a spike in TNF-alpha
[1]; 2.5 μM
  RV infectivity / RV inhibition activity: had RV inhibition activity

## CCCC[C@H](NC(=O)[C@H](CC(=O)O)NC(=O)[C@H](CCC(N)=O)NC(=O)[C@H](CC(=O)O)NC(C)=O)C(=O)N[C@@H](CCCNC(=N)N)C(=O)N[C@@H](CCC(=O)O)C(=O)N[C@@H](C)C(=O)NCC(=O)N[C@@H](C)C(=O)N[C@@H](CCC(N)=O)C(=O)N[C@@H](CC(C)C)C(=O)N[C@@H](CCCCN)C(=O)N[C@@H](CCCCN)C(=O)N[C@@H](CC(C)C)C(=O)N[C@H](C(N)=O)C(C)C [Compound 971, Ac-Asp-Gln-Asp-Nle-Arg-Glu-Ala-Gly-Ala-Gln-Leu-Lys-Lys-Leu-Val-NH2] (Ac-DQD[Nle]REAGAQLKKLV-NH2)
[1]; 2.5 μM
  RV infectivity / RV inhibition activity: had RV inhibition activity

B1: rCC16: human recombinant CC16 (club cell secretory protein) (protein, UniProt P11684 22-91, looked up)
Uteroglobin: EICPSFQRVIETLLMDTPSSYEAAMELFSPDQDMREAGAQLKKLVDTLPQKPRESIIKLMEKIAQSSLCN
[6]
  protection against airway hyperresponsiveness and respiratory infections: effective in providing protection
[7]
  leukocyte recruitment into the lungs: reduce leukocyte recruitment into the lungs
Respiratory challenges
  protection during respiratory challenges: protective
[8]
  RV burden compared to vehicle-treated mice: significant reduction in RV
[1]; rCC16, RV infection of nasal cells, read-out: dose found to be optimal to inhibit 50% of infection
  IC50: 2500 nM
[4]
  reduction of RV infection in human nasal cells: approximately 80%

B2: rCC16 from R&D: standard control, rCC16 from R&D (protein, UniProt P11684 22-91, looked up)
Uteroglobin: B1 Uteroglobin
[1]; 2.5 μM
  RV infectivity / RV inhibition activity: have activity in reducing RV infectivity

B3: rCC16 made at UA (MJ): standard control, rCC16 made at UA (MJ) (protein, UniProt P11684 22-91, looked up)
Uteroglobin: B1 Uteroglobin
[1]; 2.5 μM
  RV infectivity / RV inhibition activity: have activity in reducing RV infectivity
